Measured values published in patent publication US11525018B2, “Methods of preparing compositions for containers and other articles and methods of using same” (SWIMC LLC, priority 2014, dated 2022).

Tested on: MCF-7, clone WS8, cells
Test: MCF-7 cell proliferation assay of estrogenic activity
Format: cell-based, human
Conditions: logarithmic (base 10) Relative Proliferative Effect vs 17-beta estradiol (EC50 ratio times 100), cell proliferation as total DNA; values 'expected or measured'
Text: The MCF-7 assay is a useful test for assessing whether a polyhydric phenol compound is appreciably non-estrogenic. The MCF-7 assay uses MCF-7, clone WS8, cells to measure whether and to what extent a substance induces cell proliferation via estrogen receptor (ER)-mediated pathways. The method is described in “Test Method Nomination: MCF-7 Cell Proliferation Assay of Estrogenic Activity” submitted for validation by CertiChem, Inc. to the National Toxicology Program Interagency Center for the Evaluation of Alternative Toxicological Methods (NICEATM) on Jan. 19, 2006 (available online at http://iccvam.niehs.nih.gov/methods/endocrine/endodocs/SubmDoc.pdf).
A brief summary of the method of the aforementioned MCF-7 assay is provided below. MCF-7, clone WS8, cells are maintained at 37° C. in RMPI (or Roswell Park Memorial Institute medium) containing Phenol Red (e.g., GIBCO Catalog Number 11875119) and supplemented with the indicated additives for routine culture. An aliquot of cells maintained at 37° C. are grown for 2 days in phenol-free media containing 5% charcoal stripped fetal bovine serum in a 25 cm^2 tissue culture flask. Using a robotic dispenser such as an epMotion 5070 unit, MCF-7 cells are then seeded at 400 cells per well in 0.2 ml of hormone-free culture medium in Corning 96-well plates. The cells are adapted for 3 days in the hormone-free culture medium prior to adding the chemical to be assayed for estrogenic activity. The media containing the test chemical is replaced daily for 6 days. At the end of the 7-day exposure to the test chemical, the media is removed, the wells are washed once with 0.2 ml of HBSS (Hanks' Balanced Salt Solution), and then assayed to quantify amounts of DNA per well using a micro-plate modification of the Burton diphenylamine (DPA) assay, which is used to calculate the level of cell proliferation.
RPE is the ratio between the EC50 of the test chemical and the EC50 of the control substance 17-beta estradiol times 100, where EC50 is “effective concentration 50%” or half-maximum stimulation concentration for cell proliferation measured as total DNA in the MCF-7 assay.

SMILES	Log RPE
C[C@]12CC[C@@H]3c4ccc(O)cc4CC[C@H]3[C@@H]1CC[C@@H]2O [17β-estradiol, reference compound]	2.00
Oc1ccc(Cc2ccc(O)cc2)cc1 [Bisphenol F, reference compound]	−2
O=S(=O)(c1ccc(O)cc1)c1ccc(O)cc1 [Bisphenol S, reference compound]	−2
O=C(OCC1CCC(COC(=O)c2cccc(O)c2)CC1)c1cccc(O)c1 (stereo not shown) [Example 2, Run III, bis(3-hydroxybenzoate) of Cyclohexanedimethanol]	less than −4
O=c1c(-c2ccc(O)cc2)coc2cc(O)cc(O)c12 [Genistein, reference compound]	−2
Cc1cc(C(C)(C)c2cc(C)c(O)c(C)c2)cc(C)c1O [Structure 1]	−2
Cc1cc(CCc2cc(C)c(O)c(C)c2)cc(C)c1O [Structure 2]	−3
CC(c1ccc(O)cc1)(c1ccc(O)cc1)c1ccc(O)cc1 [Structure 3]	−3
CC(c1ccccc1)(c1ccc(O)cc1)c1ccc(O)cc1 [Structure 4]	−3
CC(C(=O)O)(c1ccc(O)cc1)c1ccc(O)cc1 [Structure 5]	less than −4
Cc1cc(Cc2cc(C)c(O)c(C)c2)cc(C)c1O [Structure 6]	less than −4
CCCC(c1cc(C(C)(C)C)c(O)cc1C)c1cc(C(C)(C)C)c(O)cc1C [Structure 7]	less than −4
Cc1cc(Cc2cc(C)cc(C(C)(C)C)c2O)c(O)c(C(C)(C)C)c1 [Structure 9]	less than −4
CC(C)(c1ccc(O)cc1)c1ccc(C(C)(C)c2ccc(O)cc2)cc1 [Structure 10]	less than −4
Oc1ccccc1Cc1ccccc1O [Structure 11]	less than −4
CC(C)(C)c1cc(O)c(C(C)(C)C)cc1O [Structure 12]	less than −4
Cc1cc(Cc2cc(C)cc(C3(C)CCCCC3)c2O)c(O)c(C2(C)CCCCC2)c1 [Structure 13]	less than −4
CCc1cc(Cc2cc(CC)cc(C(C)(C)C)c2O)c(O)c(C(C)(C)C)c1 [Structure 15]	less than −4
CC(C)(c1cc(Br)c(O)c(Br)c1)c1cc(Br)c(O)c(Br)c1 [Structure 16]	−3
C/C=C(/C(=C/C)c1ccc(O)cc1)c1ccc(O)cc1 [dienestrol, reference compound]	about 2
CC/C(=C(/CC)c1ccc(O)cc1)c1ccc(O)cc1 [diethylstilbestrol, reference compound]	about 2

Tested on: not listed separately
Test: suitable genotoxicity assays (e.g., Ames II assay)
Conditions: not given
Experimental: A solution of 4,4′-methylenebis(2,6-di-t-butylphenol) (500 grams, 1.076 moles obtained from Albemarle Corporation) in anhydrous dimethylformamide (1.5 liters) was cooled to −10° C. and a solution of sodium tert-pentoxide (374 grams, 3.23 moles) in anhydrous dimethylformamide (1.5 liters) was added drop wise at −10 to −5° C. The mixture was stirred for 30 minutes at −10° C. Epichlorohydrin (1.9 liters, 24.2 moles) was added via dropping funnel at −10 to −5° C. The solution was allowed to warm up to room temperature and then was heated for 16 hours at a temperature of from 75 to 82° C. After cooling down to ambient temperature, the mixture was added to cold tap water (12 liters). Ethyl acetate (5 liters) was added to the mixture, which was stirred for 10 minutes and separated. The aqueous layer was extracted again with additional ethyl acetate (3 liters). The combined ethyl acetate extracts were washed twice with brine (2×6 liters), dried over anhydrous sodium sulfate (600 grams), and filtered. The solvent was removed under reduced pressure to give 887 grams of crude product as a purple oil. The crude product was dissolved in toluene (600 milliliters) and passed over a silica gel pad (1.4 kilograms), and eluted with a mixture of toluene and heptane (8 parts toluene to 2 parts heptane). The fractions containing product were combined and evaporated under reduced pressure. […]

SMILES	genotoxicity
CC(C)(C)c1cc(Cc2cc(C(C)(C)C)c(OCC3CO3)c(C(C)(C)C)c2)cc(C(C)(C)C)c1OCC1CO1 (stereo not shown) [Diglycidyl ether of 4,4′-methylenebis(2,6-di-tert-butylphenol)]	non-genotoxic
CCCC(c1cc(C(C)(C)C)c(OCC2CO2)cc1C)c1cc(C(C)(C)C)c(OCC2CO2)cc1C (stereo not shown) [Diglycidyl ether of 4,4′Butylidenebis(2-t-butyl-5-methylphenol))]	non-genotoxic

Target: T1, human estrogen receptor (Homo sapiens, UniProt P03372)
T1 sequence (P03372 1-595): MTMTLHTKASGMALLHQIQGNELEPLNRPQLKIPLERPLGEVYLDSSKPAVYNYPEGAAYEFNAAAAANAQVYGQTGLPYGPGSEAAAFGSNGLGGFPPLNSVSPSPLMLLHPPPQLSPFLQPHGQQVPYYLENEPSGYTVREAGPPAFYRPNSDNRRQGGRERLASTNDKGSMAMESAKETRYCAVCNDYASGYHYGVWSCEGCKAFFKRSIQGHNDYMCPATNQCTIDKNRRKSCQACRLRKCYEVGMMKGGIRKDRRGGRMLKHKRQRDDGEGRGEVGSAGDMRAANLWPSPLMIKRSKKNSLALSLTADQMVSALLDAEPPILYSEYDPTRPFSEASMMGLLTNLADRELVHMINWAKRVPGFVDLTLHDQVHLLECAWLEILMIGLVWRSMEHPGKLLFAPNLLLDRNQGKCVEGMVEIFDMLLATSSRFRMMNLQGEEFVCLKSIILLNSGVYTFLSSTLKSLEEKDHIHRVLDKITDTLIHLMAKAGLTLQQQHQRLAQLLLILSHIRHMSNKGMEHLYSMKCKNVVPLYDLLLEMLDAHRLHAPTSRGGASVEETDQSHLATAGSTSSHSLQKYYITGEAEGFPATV
Test: suitable in vitro assay correlated to the MCF-7 assay (estrogenic activity)
Format: cell-based
Conditions: in vitro assay whose results are directly correlated to the MCF-7 assay through common reference compounds

SMILES	estrogenic activity
Cc1cc(Cc2cc(C)c(O)c(C)c2)cc(C)c1O [Structure 6, 4,4′-methylenebis(2,6-dimethylphenol)]	do not exhibit appreciable estrogenic activity
CCCC(c1cc(C(C)(C)C)c(O)cc1C)c1cc(C(C)(C)C)c(O)cc1C [Structure 7, 4,4′-butylidenebis(2-t-butyl-5-methylphenol)]	do not exhibit appreciable estrogenic activity
CC(C)(C)c1cc(Cc2cc(C(C)(C)C)c(O)c(C(C)(C)C)c2)cc(C(C)(C)C)c1O [Structure 8, 4,4′-methylenebis(2,6-di-t-butylphenol)]	do not exhibit appreciable estrogenic activity
Cc1cc(Cc2cc(C)cc(C(C)(C)C)c2O)c(O)c(C(C)(C)C)c1 [Structure 9]	do not exhibit appreciable estrogenic activity
CC(C)(C)c1cc(O)c(C(C)(C)C)cc1O [Structure 12, 2,5-di-t-butylhydroquinone]	do not exhibit appreciable estrogenic activity
